Reference: patent US9056081B2, “Compositions for treating pseudomonas infection” (Universitätsklinikum Hamburg-Eppendorf, priority 2009, dated 2015)
pIC50: −log10 of the molar value. “Also recorded” adds a separate entry of the source. Read-outs that look alike come from different tables or passages of the source. Ends that are not written are not given here.

Assays:
human airway cilia = experiment: Ciliary beat frequency (CBF) of human nasal mucosa, substances alone without lectin; type: cell-based; details: no lectin, over 24 h; for effect on the ciliary beat frequency (CBF), monosaccharide alone: 0.2 M monosaccharide
Experimental: The influence of monosaccharides and several peptides (obtained from Centre for Molecular Neurobiology, Hamburg, Germany) alone and in combination with PA-IL or PA-IIL on CBF was also investigated. The monosaccharides (0.2 M) and peptides (0.968 mM) were pre-incubated with 10 μg/ml PA-IL and 10 μg/ml PA-IIL, respectively, for 30 min at room temperature, at which they were agitated the for whole time and then added to the medium and the CBF was monitored over a 24 h period. […]

PA-IL = PA-IL (Pseudomonas aeruginosa, UniProt Q05097); experiment: cell-based; type: cell-based
Experimental: (§1) Experiments were carried out on human nasal conchae, obtained during routine surgery from the ENT Hospital of the University Medical Center Hamburg-Eppendorf, Hamburg, Germany. For the measurement of CBF, small pieces of nasal mucosa were punched out of the nasal conchae by a special biopsy punch (Stiefel Laboratorium GmbH, Offenbach, Germany) (4-6 pieces per nasal conchae) and transferred to Petri dishes (Greiner Bio-One, Kremsmünster, Austria) containing RPMI-1640 and L-Glutamine medium (Gibco, Karlsruhe, Germany) supplemented with 10% fetal calf serum (Gibco, Karlsruhe, Germany), 1% Penicillin-Streptomycin (10 000 U/ml, Gibco, Karlsruhe, Germany) and 0.9% Amphotericin B (250 UG/ml, Gibco, Karlsruhe, Germany) as a fungicide. The specimens were maintained under standard cell culture conditions at 37° C. in 5% CO2 for up to two weeks.
(§2) The aim of this experiment was to compare the efficiency of different sugar solutions and peptides to block PA-IL and PA-IIL binding to cilia in tissue sections and in vitro airway cultures by measuring their ciliary beat frequency (CBF). Actively beating ciliated cells were viewed trough phase-contrast optics of a Leica DM IRB HC inverted microscope (Leica, Bensheim, Germany) placed on a Micro-g vibration isolation table (TMC, Peabody, Mass.). During the experiments, the cultured tissue samples were maintained at a constant temperature (35±0.5° C.) by a thermostatically controlled heated stage. The signals were measured and analysed by a computer system incorporating a special purpose MPV-CBF software (Software-Entwicklung Radmann, Solms, Germany). The CBF was calculated by collecting data from 512 readings (10 s) and by performing Fourier analysis (Mewe et al. 2005). Five of these Fourier transforms taken per nasal conchae piece were measured.
The influence of monosaccharides and several peptides (obtained from Centre for Molecular Neurobiology, Hamburg, Germany) alone and in combination with PA-IL or PA-IIL on CBF was also investigated. The monosaccharides ([…]) were pre-incubated with 10 μg/ml PA-IL and 10 μg/ml PA-IIL, respectively, for 30 min at room temperature, at which they were agitated the for whole time and then added to the medium and the CBF was monitored over a 24 h period. Measurement was carried out after 0, 1, 2, 3, 5, 8, 24 h incubation. Negative controls were maintained in medium with no additions made. Positive controls were maintained in medium with PA-IL or PA-IIL, respectively.
In CBF analysis, the influence of monosaccharides (D-galactose and L(−)-fucose) and the HNK-1 mimetic peptide pHNK-1 alone and in combination with PA-IL on CBF was investigated.

PA-IIL [1] = biological target: T1, PA-IIL (Pseudomonas aeruginosa, UniProt Q9HYN5); experiment: cell-based; type: cell-based
Experimental: as §1, §2
(§3) The influence of monosaccharides and several peptides (obtained from Centre for Molecular Neurobiology, Hamburg, Germany) alone and in combination with PA-IL or PA-IIL on CBF was also investigated. The monosaccharides (0.2 M) and peptides (0.968 mM) were pre-incubated with 10 μg/ml PA-IL and 10 μg/ml PA-IIL, respectively, for 30 min at room temperature, at which they were agitated the for whole time and then added to the medium and the CBF was monitored over a 24 h period. Measurement was carried out after 0, 1, 2, 3, 5, 8, 24 h incubation. Negative controls were maintained in medium with no additions made. Positive controls were maintained in medium with PA-IL or PA-IIL, respectively.
For CBF analysis monosaccharides (D-galactose and L(−)-fucose) and peptides were pre-incubated with PA-IIL and the CBF was determined.

PA-IL and PA-IIL = experiment: CBF assay: simultaneous application of PA-IL and PA-IIL; type: cell-based, Pseudomonas aeruginosa
Experimental: Experiments were carried out on human nasal conchae, obtained during routine surgery from the ENT Hospital of the University Medical Center Hamburg-Eppendorf, Hamburg, Germany. […]
The aim of this experiment was to compare the efficiency of different sugar solutions and peptides to block PA-IL and PA-IIL binding to cilia in tissue sections and in vitro airway cultures by measuring their ciliary beat frequency (CBF). […] The signals were measured and analysed by a computer system incorporating a special purpose MPV-CBF software (Software-Entwicklung Radmann, Solms, Germany). The CBF was calculated by collecting data from 512 readings (10 s) and by performing Fourier analysis (Mewe et al. 2005). Five of these Fourier transforms taken per nasal conchae piece were measured.
as §3, with “Measurement was carried out after 0, 1, 2, 3, 5, 8, 24 h incubation. Negative controls were maintained in medium with no additions made. Positive controls were maintained in medium with PA-IL or PA-IIL, respectively.” left out

PA-IIL [2] = biological target: T1, PA-IIL; type: cell-based; details: 0.121-0.484 mM peptide co-incubated with 10 μg/ml PA-IIL, 24 h
[3] = Storage stability of monosaccharide solutions (data not shown); type: physicochemical; details: stored at room temperature or at 4° C. dissolved in an aqueous solution
[4] = 0.121 mM peptide co-incubated with 10 μg/ml PA-IL, 24 h
[5] = 0.242 mM peptide co-incubated with 10 μg/ml PA-IL, 24 h
[6] = 0.2 M monosaccharide co-incubated with 10 μg/ml PA-IL, 24 h
[7] = 0.2 M monosaccharide co-incubated with 10 μg/ml PA-IIL, 24 h

T1 sequence (Q9HYN5 entry or part of it): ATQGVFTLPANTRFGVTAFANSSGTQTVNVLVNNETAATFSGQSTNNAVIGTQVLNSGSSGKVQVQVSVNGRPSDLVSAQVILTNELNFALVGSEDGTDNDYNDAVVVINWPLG
Sequence of PA-IL (Q05097 whole entry): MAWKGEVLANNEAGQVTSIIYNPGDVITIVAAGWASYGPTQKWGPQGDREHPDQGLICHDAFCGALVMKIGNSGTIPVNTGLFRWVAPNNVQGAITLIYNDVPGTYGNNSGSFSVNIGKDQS

Row | Molecule | effect on the ciliary beat frequency (CBF), peptide alone (human airway cilia; 0.968 mM peptide) | pIC50 (PA-IL) | effect on the CBF-decreasing effect of PA-IL (PA-IL) | effect on the CBF-decreasing effect of PA-IL (PA-IL; [4]) | effect on the CBF-decreasing effect of PA-IL (PA-IL; [5]) | pIC50 (PA-IIL [1]) | effect on the CBF-decreasing effect of PA-IIL (PA-IIL [1]) | effect on the decrease of CBF after simultaneous application of PA-IL and PA-IIL (PA-IL and PA-IIL) | effect on the CBF-decreasing effect of PA-IIL (PA-IIL [2]) | effect on the ciliary beat frequency (CBF), monosaccharide alone (human airway cilia) | effect on the CBF-decreasing effect of PA-IL (PA-IL; [6]) | effect on the CBF-decreasing effect of PA-IIL (PA-IIL [1]; [7]) | stability and inhibitory potency of the solution on storage [3] | effect on the CBF-decreasing effect of PA-IL (PA-IL; listed as scrambled version of the peptide pHNK-1)
1 | FLHTRLFV [pHNK-1] | had no effect on the CBF | 3.32 | blocked the CBF-decreasing effect of PA-IL; also recorded: reduced the CBF-decreasing effect of the PA lectin; also recorded: could be reduced | resulted in a continuous decrease of the CBF within 24 h | resulted in a continuous decrease of the CBF within 24 h | 3.01 | inhibited the CBF-decreasing effect of PA-IIL; also recorded: reduced the CBF-decreasing effect of the PA lectin; also recorded: blocked | caused an inhibition of lectin induced suppression of CBF; also recorded: could be inhibited | resulted in a continuous decrease of the CBF within 24 h | – | – | – | – | –
2 | O=C[C@H](O)[C@@H](O)[C@@H](O)[C@H](O)CO [D-galactose, reference compound] | – | – | – | – | – | – | – | – | – | had no effect on the CBF | reduced the CBF-decreasing effect of the PA lectin; also recorded: could be effectively reduced | no inhibition could be achieved; also recorded: resulted in a decline of the CBF within 24 h; also recorded: did not inhibit | not stable and loose their inhibitory potency | –
3 | TVFHFRLL [sHNK-1] | – | – | also reduced the CBF-decreasing effect of PA-IL; also recorded: reduced the CBF-decreasing effect of the PA lectin; also recorded: resulted in a continuous decrease of the CBF within 24 h | resulted in a continuous decrease of the CBF within 24 h | resulted in a continuous decrease of the CBF within 24 h | – | resulted in a continuous decrease of the CBF within 24 h; also recorded: none of the other tested peptides (sHNK-1, pLeX, sLeX) had any consequence; also recorded: had no effect | – | – | – | – | – | – | also reduced the CBF-decreasing effect of PA-IL
4 | C[C@H](O)[C@@H](O)[C@@H](O)[C@H](O)C=O [L(−)-fucose, reference compound] | – | – | – | – | – | – | – | – | – | had no effect on the CBF | resulted in a continuous decrease of the CBF within 24 h; also recorded: did not inhibit | could be reduced; also recorded: reduced the CBF-decreasing effect of the PA lectin | not stable and loose their inhibitory potency | –
